Reference: patent publication US5496935A, “2',3'-dideoxynucleoside pyrimidine compounds and carbocyclic analogs” (Max-Delbru/ ck-Centrum, priority 1994, dated 1996)
pEC50, pIC50: −log10 of the molar value.

What was measured:
[1] = test system: HIV-1 (HTLV IIIa); assay: Inhibition of the cytopathic effect of HIV on T lymphocyte cells (protection of MT-4 cells); format: cell-based; settings: for pEC50: Human immunodeficiency virus 1, MT4, 50% protection of MT-4 cells against HIV-1 (HTLV IIIa), read-out: 50% antiviral dose (ED50)
Text: 2. Inhibition of the cytopathic effect of HIV on T lymphocyte cells
(§1) Under in vitro conditions, an infection of T lymphocytes with HIV leads to the death of the cells within a few days. The MT-4 cells, described by Harada et al. in Science 229, 563 (1985), were used in a test system (Matthes et al., Biochem. Biophys., Res. Commun. 153, 825 (1988)), to test to what extent the inventive nucleosides can nullify the cytocidal effect of HIV-1 (HTLV IIIa) on this T cell line. In addition, the antiproliferative effectiveness of the nucleosides investigated is listed and, moreover, as the concentration which decreases the proliferation of the MT-4 cells by 50% (CD50).
(§2) Comparison of the antiviral and antiproliferative effectiveness
(§3) of nucleoside analogies using MT-4 cells

[2] = Antiproliferative effect on MT-4 cells; format: cell-based, human; settings: human, mt-4 cells
Text: as §1, with “(CD50). […]” for “(CD50).”
as §2, §3

[3] = test system: colony-forming cells of the bone marrow of the mouse (GM-CFU); assay: Growth inhibition of colony-forming cells of the bone marrow (GM-CFU); format: cell-based; settings: concentrations up to 100 micromoles/L
[4] = In vitro cytotoxicity to cell cultures, H-8; format: cell-based; settings: human, h-8 cells; read-out: CD50, antiproliferative effect
Text: (§4) 3. In vitro cytotoxicity of 3'-fluoro-4-thiothymidine to cell cultures
(§5) A series of further human cell lines was included in the investigation of the antiproliferative effect of 3'-fluoro-4-thiothymidine and the following CD50 were found: […]

[5] = In vitro cytotoxicity to cell cultures, REH; format: cell-based; settings: human, reh cells; read-out: CD50, antiproliferative effect
Text: as §4, §5

[6] = In vitro cytotoxicity to cell cultures, Molt-4; format: cell-based; settings: human, molt-4 cells; read-out: CD50, antiproliferative effect
Text: as §4, §5

[7] = In vitro cytotoxicity to cell cultures, HELFI; format: cell-based; settings: human, helfi lung fibroblasts; read-out: CD50, antiproliferative effect
Text: as §4, §5

[8] = test system: MT-4 cells; assay: Antiproliferative effect on MT-4 cells; format: cell-based, human
Text: as §1, with “(CD50). […]” for “(CD50).”
as §2, §3

[9] = test system: AIDS patients; settings: cited from earlier work
[10] = biological target: DNA polymerase β (Homo sapiens, UniProt P06746); assay: Inhibition of DNA polymerase β (cellular DNA repair enzyme); format: biochemical; settings: read-out: ID50 (concentration inhibiting the polymerase to the extent of 50%), DNA polymerase β
Procedure: (§6) For these investigations, the effect of the compound on the activity of HIV-RT as well as on the cellular DNA polymerase was determined using the methods described by Matthes et al., in Biochem. Biophys. Res. Commun. 148, 78 (1987). Different concentrations of 3'-fluoro-4-thiothymidine triphosphate were added to the enzyme preparations. The concentrations of 3'-fluoro-4-thiothymidine triphosphate, which inhibit the polymerases investigated to the extent of 50% (ID50), were determined from the inhibition curves obtained. […] Accordingly 3'-fluoro-4-thiothymidine triphosphate inhibits the HIV-RT 700 times more effectively than the cellular DNA polymerase and thus has a largely selective effect on the HIV replication.

[11] = biological target: T1, HIV-associated reverse transcriptase (HIV-RT) (Human immunodeficiency virus type 1 group M subtype B, UniProt P04585); assay: Inhibition of the HIV-associated reverse transcriptase (HIV-RT); format: biochemical
T1 construct: HIV-associated reverse transcriptase (HIV-RT)
Procedure: 1. Selective inhibition of the HIV-associated reverse transcriptase (HIV-RT) by 3'-fluoro-4-thiothymidine-triphosphate
as §6

[12] = biological target: T2, DNA polymerase (Homo sapiens, UniProt P09884); assay: Inhibition of cellular DNA polymerase (enzyme mainly responsible for cellular replication); format: biochemical; settings: read-out: ID50 (concentration inhibiting the polymerase to the extent of 50%), DNA polymerase
T2 sequence (P09884 1-1462): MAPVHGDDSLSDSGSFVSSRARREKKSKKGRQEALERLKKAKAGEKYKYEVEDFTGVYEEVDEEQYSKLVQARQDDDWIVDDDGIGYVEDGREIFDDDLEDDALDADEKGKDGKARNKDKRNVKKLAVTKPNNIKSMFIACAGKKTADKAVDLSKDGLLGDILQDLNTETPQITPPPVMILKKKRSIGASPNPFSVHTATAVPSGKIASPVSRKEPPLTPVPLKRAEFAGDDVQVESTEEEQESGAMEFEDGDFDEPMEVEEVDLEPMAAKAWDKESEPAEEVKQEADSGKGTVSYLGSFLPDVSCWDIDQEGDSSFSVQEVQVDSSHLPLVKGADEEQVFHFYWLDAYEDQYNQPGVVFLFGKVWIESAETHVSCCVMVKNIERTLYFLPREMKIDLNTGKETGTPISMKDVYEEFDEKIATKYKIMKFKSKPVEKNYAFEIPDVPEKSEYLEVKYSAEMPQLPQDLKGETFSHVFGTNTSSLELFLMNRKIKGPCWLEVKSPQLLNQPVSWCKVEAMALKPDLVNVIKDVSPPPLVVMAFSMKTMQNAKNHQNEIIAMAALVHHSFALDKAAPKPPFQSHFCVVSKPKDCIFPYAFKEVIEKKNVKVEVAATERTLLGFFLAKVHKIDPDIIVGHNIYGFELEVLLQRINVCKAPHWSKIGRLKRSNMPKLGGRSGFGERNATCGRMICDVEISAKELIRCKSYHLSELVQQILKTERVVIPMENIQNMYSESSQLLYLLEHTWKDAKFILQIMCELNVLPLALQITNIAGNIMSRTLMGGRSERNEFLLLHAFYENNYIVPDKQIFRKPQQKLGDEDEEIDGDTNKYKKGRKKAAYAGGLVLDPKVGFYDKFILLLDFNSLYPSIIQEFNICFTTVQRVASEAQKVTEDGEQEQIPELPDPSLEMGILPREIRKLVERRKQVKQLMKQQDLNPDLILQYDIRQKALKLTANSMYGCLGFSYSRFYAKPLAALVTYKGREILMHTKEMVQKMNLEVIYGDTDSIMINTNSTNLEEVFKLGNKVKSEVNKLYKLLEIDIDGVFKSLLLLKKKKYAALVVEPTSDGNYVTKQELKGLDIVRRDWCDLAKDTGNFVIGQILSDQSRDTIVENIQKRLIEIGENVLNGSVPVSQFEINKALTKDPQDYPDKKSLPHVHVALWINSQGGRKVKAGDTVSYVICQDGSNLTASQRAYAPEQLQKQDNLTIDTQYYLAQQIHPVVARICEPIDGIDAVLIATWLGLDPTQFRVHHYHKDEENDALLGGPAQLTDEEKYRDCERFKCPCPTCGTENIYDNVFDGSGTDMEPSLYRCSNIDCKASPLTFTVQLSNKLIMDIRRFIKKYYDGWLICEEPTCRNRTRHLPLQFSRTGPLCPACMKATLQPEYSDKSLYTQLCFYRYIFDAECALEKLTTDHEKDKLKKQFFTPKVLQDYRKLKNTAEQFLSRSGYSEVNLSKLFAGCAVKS
Procedure: as §6

[13] = AIDS patients with Pneumocystis carinii pneumonia

Row | pEC50 [1] | SMILES | CC50 [2] | other results
1 | 4.00 | O=c1nc(NO)ccn1[C@H]1C[C@H](F)[C@@H](CO)O1 [1-(2,3-Dideoxy-3-fluoro-β-D-glycero-ribofuranosyl)-4-hydroxylamino-(1H)-pyrimidine-2-one] | 100 µM | –
2 | 4.00 | Cc1cn([C@H]2C[C@H](F)[C@@H](CO)O2)c(=O)nc1NO [1-(2,3-Dideoxy-3-fluoro-β-D-ribofuranosyl)-4-hydroxylamino-5-methyl-(1H)-pyrimidine-2-one] | 300 µM | –
3 | < 3.00 | CSc1nc(=O)n([C@H]2C[C@H](F)[C@@H](CO)O2)cc1C [1-(2,3-Dideoxy-3-fluoro-β-D-ribofuranosyl)-4-methylmercapto-5-methyl-(1H)-pyrimidine-2-one] | > 1000 µM | –
4 | 5.74 | Cc1cn([C@H]2C[C@H](F)[C@@H](CO)O2)c(=O)[nH]c1=S [1-(2,3-Dideoxy-3-fluoro-β-D-ribofuranosyl)-4-thiothymine] | 480 µM | growth-inhibiting effect on colony-forming cells of the bone marrow [3]: no growth-inhibiting effect whatsoever; CC50 [4]: ≥ 800 µM; CC50 [5]: 500 µM; inhibition of HIV replication (summary in words) [1]: effective inhibitor of HIV replication; CC50 [6]: ≥ 1000 µM; CC50 [7]: 700 µM; effect on cell proliferation (in words) ([8]; MT-4 cells): hardly any effect on the cell proliferation; cytotoxicity (summary in words) ([8]; summary of the cell tests): very slight cytotoxicity
5 | 4.82 | O=c1[nH]c(=S)ccn1[C@H]1C[C@H](F)[C@@H](CO)O1 [1-(2,3-Dideoxy-3-fluoro-β-D-ribofuranosyl)-4-thiouracil] | 150 µM | –
6 | 6.07 | Cc1cn([C@H]2C=C[C@@H](CO)O2)c(=O)[nH]c1=S [1-(2,3-Dideoxy-β-D-glycero-pent-2-enofuranosyl)-4-thiothymine] | 350 µM | –
7 | 4.92 | CSc1ccn([C@H]2C[C@H](F)[C@@H](CO)O2)c(=O)n1 [1-(2,3-dideoxy-3-fluoro-β-D-ribofuranosyl)-4-methylmercapto-pyrimidine-2-one] | 50 µM | –
8 | 4.92 | Cc1cnc(=O)n([C@H]2C[C@H](F)[C@@H](CO)O2)c1 [1-(2,3-dideoxy-3-fluoro-β-D-ribofuranosyl)-5-methyl-pyrimidine-2-one] | > 400 µM | –
9 | 4.52 | O=c1ncccn1[C@H]1C[C@H](F)[C@@H](CO)O1 [1-(2,3-dideoxy-3-fluoro-β-D-ribofuranosyl)-pyrimidine-2-one] | > 800 µM | –
10 | – | Cc1cn([C@H]2C[C@H](N=[N+]=[N-])[C@@H](CO)O2)c(=O)[nH]c1=O [3'-azidothymidine] | – | clinical and neurological findings (in words) [9, 13]: improvements in clinical and neurological findings; immunological functions (in words) [9, 13]: occasional restoration of certain immunological functions; life prolonging effects (in words) [9, 13]: unambiguous life prolonging effects; patients in whom toxic side effects on the bone marrow make blood transfusions necessary ([9]; AIDS patients): about 50%
11 | – | Cc1cn([C@H]2C[C@H](F)[C@@H](COP(=O)(O)OP(=O)(O)OP(=O)(O)O)O2)c(=O)[nH]c1=S [3'-fluoro-4-thiothymidine triphosphate, 1-(2,3-Dideoxy-3-fluoro-β-D-ribofuranosyl)-4-thiothymine-5'-triphosphate] | – | pIC50 [10]: 5.15; inhibits the HIV-RT times more effectively than the cellular DNA polymerase ([11]; HIV-RT versus cellular DNA polymerase): 700 times; pIC50 ([11]; HIV-RT, read-out: ID50 (concentration inhibiting the polymerase to the extent of 50%), HIV-RT): 6.52; pIC50 [12]: 3.85
12 | – | Cc1ccc(C(=O)Nc2ccc(S(=O)(=O)O)c3cc(S(=O)(=O)O)cc(S(=O)(=O)O)c23)cc1NC(=O)c1cccc(NC(=O)Nc2cccc(C(=O)Nc3cc(C(=O)Nc4ccc(S(=O)(=O)O)c5cc(S(=O)(=O)O)cc(S(=O)(=O)O)c45)ccc3C)c2)c1 [Suranim] | – | tolerance and effectiveness (in words) ([9]; clinically tested): have not yet attained the necessary tolerance and the hoped-for effectiveness
